From US8183262B2, “Pyridine derivatives as mGluR2 antagonists” (Hoffmann-La Roche Inc., priority 2007, dated 2012) come the findings set out here.

Broadly, the melting point is the temperature of the solid-liquid transition.

As to `NS(=O)(=O)c1cccc(-c2cn(-c3cc(-c4ccc(C(F)(F)F)cc4)cc(C(F)(F)F)n3)cn2)c1` [Example 296, 3-{1-[6-Trifluoromethyl-4-(4-trifluoromethyl-phenyl)-pyridin-2-yl]-1H-imidazol-4-yl}-benzenesulfonamide], the melting point was more than 250 °C.
As to `Cc1cc(-c2ccc(C(F)(F)F)cc2)nc(-c2ccnc(-c3cccc(S(=O)(=O)NC(C)(C)C)c3)c2)c1` [Example 297, N-tert-Butyl-3-[4-methyl-6-(4-trifluoromethyl-phenyl)-[2,4′]bipyridinyl-2′-yl]-benzenesulfonamide], the melting point came to 189 °C.
The compound `Cc1nc(-c2cn(-c3cc(-c4ccc(C(F)(F)F)cc4)cc(C(F)(F)F)n3)cn2)sc1S(=O)(=O)NC(C)(C)C` [Example 300, 4-Methyl-2-{1-[6-trifluoromethyl-4-(4-trifluoromethyl-phenyl)-pyridin-2-yl]-1H-imidazol-4-yl}-thiazole-5-sulfonic acid tert-butylamide] yielded a melting point of 260 °C.
`CC(C)(C)NS(=O)(=O)c1ccc(-c2cn(-c3cc(-c4ccc(C(F)(F)F)cc4)cc(C(F)(F)F)n3)cn2)s1` [Example 301, 5-{1-[6-Trifluoromethyl-4-(4-trifluoromethyl-phenyl)-pyridin-2-yl]-1H-imidazol-4-yl}-thiophene-2-sulfonic acid tert-butylamide] returned a melting point of more than 250 °C.
Compound `CC(C)(C)NS(=O)(=O)c1cnc(-c2cn(-c3cc(-c4ccc(C(F)(F)F)cc4)cc(C(F)(F)F)n3)cn2)s1` [Example 302, 2-{1-[6-Trifluoromethyl-4-(4-trifluoromethyl-phenyl)-pyridin-2-yl]-1H-imidazol-4-yl}-thiazole-5-sulfonic acid tert-butylamide] showed a melting point of 252 °C.
The value for `Cc1cc(-c2ccc(C(F)(F)F)cc2)cc(-c2ccnc(-c3ccc(S(=O)(=O)NC(C)(C)C)s3)n2)n1` [Example 303, 5-{4-[6-Methyl-4-(4-trifluoromethyl-phenyl)-pyridin-2-yl]-pyrimidin-2-yl}-thiophene-2-sulfonic acid tert-butylamide] was 242 °C (dec.); that for `Cc1cc(-c2ccc(C(F)(F)F)cc2)cc(-c2ccnc(-c3ccc(S(=O)(=O)NC(C)(C)C)s3)c2)n1` [Example 304, 5-[6-Methyl-4-(4-trifluoromethyl-phenyl)-[2,4′]bipyridinyl-2′-yl]-thiophene-2-sulfonic acid tert-butylamide] was 225 °C.
The compound `Cc1cc(-c2ccc(C(F)(F)F)cc2)cc(-c2cccc(-c3ccc(S(=O)(=O)NC(C)(C)C)s3)n2)n1` [Example 305, 5-[6′-Methyl-4′-(4-trifluoromethyl-phenyl)-[2,2′]bipyridinyl-6-yl]-thiophene-2-sulfonic acid tert-butylamide] showed a melting point of 227 °C.
To `Cc1cc(-c2ccc(C(F)(F)F)cc2)cc(-c2ccnc(-c3cccc(N)c3)c2)n1` [Example 307, 3-[6-Methyl-4-(4-trifluoromethyl-phenyl)-[2,4′]bipyridinyl-2′-yl]-phenylamine] belongs 162 °C (dec.); to `Cc1cc(-c2ccc(C(F)(F)F)cc2)nc(-c2ccnc(-c3cccc(S(N)(=O)=O)c3)n2)c1` [Example 308, 3-{4-[4-Methyl-6-(4-trifluoromethyl-phenyl)-pyridin-2-yl]-pyrimidin-2-yl}-benzenesulfonamide], more than 250 °C.
For `Cc1cc(-c2ccc(C(F)(F)F)cc2)nc(-c2ccnc(-c3cccc(S(N)(=O)=O)c3)c2)c1` [Example 309, 3-[4-Methyl-6-(4-trifluoromethyl-phenyl)-[2,4′]bipyridinyl-2′-yl]-benzenesulfonamide], the melting point is 238 °C.
Consider `Cc1cc(-c2ccc(C(F)(F)F)cc2)nc(-c2cccc(-c3cccc(S(N)(=O)=O)c3)n2)c1` [Example 310, 3-[4′-Methyl-6′-(4-trifluoromethyl-phenyl)-[2,2′]bipyridinyl-6-yl]-benzenesulfonamide], for which the melting point worked out at 229 °C.
Take `Cc1nc(-c2cn(-c3cc(-c4ccc(C(F)(F)F)cc4)cc(C(F)(F)F)n3)cn2)sc1S(N)(=O)=O` [Example 312, 4-Methyl-2-{1-[6-trifluoromethyl-4-(4-trifluoromethyl-phenyl)-pyridin-2-yl]-1H-imidazol-4-yl}-thiazole-5-sulfonic acid amide]: the melting point was 170 °C (dec.).
`NS(=O)(=O)c1ccc(-c2cn(-c3cc(-c4ccc(C(F)(F)F)cc4)cc(C(F)(F)F)n3)cn2)s1` [Example 314, 5-{1-[6-Trifluoromethyl-4-(4-trifluoromethyl-phenyl)-pyridin-2-yl]-1H-imidazol-4-yl}-thiophene-2-sulfonic acid amide]: the melting point is 237 °C (dec.).
The value for `Cc1cc(-c2ccc(C(F)(F)F)cc2)cc(-c2ccnc(-c3ccc(S(N)(=O)=O)s3)n2)n1` [Example 315, 5-{4-[6-Methyl-4-(4-trifluoromethyl-phenyl)-pyridin-2-yl]-pyrimidin-2-yl}-thiophene-2-sulfonic acid amide] was more than 250 °C; that for `Cc1cc(-c2ccc(C(F)(F)F)cc2)cc(-c2ccnc(-c3ccc(S(N)(=O)=O)s3)c2)n1` [Example 316, 5-[6-Methyl-4-(4-trifluoromethyl-phenyl)-[2,4′]bipyridinyl-2′-yl]-thiophene-2-sulfonic acid amide] was more than 250 °C.
The value for `Cc1cc(-c2ccc(C(F)(F)F)cc2)cc(-c2cccc(-c3ccc(S(N)(=O)=O)s3)n2)n1` [Example 317, 5-[6′-Methyl-4′-(4-trifluoromethyl-phenyl)-[2,2′]bipyridinyl-6-yl]-thiophene-2-sulfonic acid amide] was 243 °C (dec.); that for `CC(C)(C)NS(=O)(=O)c1ccc(-c2cc(-c3cc(C(F)(F)F)cc(-c4ccc(C(F)(F)F)cc4)n3)ccn2)s1` [Example 319, 5-[4-Trifluoromethyl-6-(4-trifluoromethyl-phenyl)-[2,4′]bipyridinyl-2′-yl]-thiophene-2-sulfonic acid tert-butylamide] was 220 °C; that for `NS(=O)(=O)c1ccc(-c2cc(-c3cc(C(F)(F)F)cc(-c4ccc(C(F)(F)F)cc4)n3)ccn2)s1` [Example 321, 5-[4-Trifluoromethyl-6-(4-trifluoromethyl-phenyl)-[2,4′]bipyridinyl-2′-yl]-thiophene-2-sulfonic acid amide] was 97 °C (dec.).
Take `Cc1cc(-c2ccc(C(F)(F)F)cc2)nc(-c2ccnc(-c3ccc(S(N)(=O)=O)s3)c2)c1` [Example 323, 5-[4-Methyl-6-(4-trifluoromethyl-phenyl)-[2,4′]bipyridinyl-2′-yl]-thiophene-2-sulfonic acid amide]: the melting point was 228 °C (dec.).
Compound `Cc1cc(-c2ccc(C(F)(F)F)cc2)cc(-c2nc(-c3ccc(S(=O)(=O)NC(C)(C)C)s3)cs2)n1` [Example 324, 5-{2-[6-Methyl-4-(4-trifluoromethyl-phenyl)-pyridin-2-yl]-thiazol-4-yl}-thiophene-2-sulfonic acid tert-butylamide] displayed a melting point of 171 °C.
To `Cc1cc(-c2ccc(C(F)(F)F)cc2)cc(-c2ccnc(-c3cccc(N)c3)n2)n1` [Example 326, 3-{4-[6-Methyl-4-(4-trifluoromethyl-phenyl)-pyridin-2-yl]-pyrimidin-2-yl}-phenylamine] belongs 167 °C.
To `Cc1cc(-c2ccc(C(F)(F)F)cc2)cc(-c2cccc(-c3cccc(N)c3)n2)n1` [Example 327, 3-[6′-Methyl-4′-(4-trifluoromethyl-phenyl)-[2,2′]bipyridinyl-6-yl]-phenylamine] belongs 167 °C.
The value for `COc1cc(-c2cc(C)nc(-c3ccnc(-c4cccc(S(=O)(=O)NC(C)(C)C)c4)c3)c2)ccc1C(F)(F)F` [Example 336, N-tert-Butyl-3-[4-(3-methoxy-4-trifluoromethyl-phenyl)-6-methyl-[2,4′]bipyridinyl-2′-yl]-benzenesulfonamide] was 189 °C.
Consider `COc1cc(-c2cc(C)nc(-c3ccnc(-c4ccc(S(=O)(=O)NC(C)(C)C)s4)c3)c2)ccc1C(F)(F)F` [Example 339, 5-[4-(3-Methoxy-4-trifluoromethyl-phenyl)-6-methyl-[2,4′]bipyridinyl-2′-yl]-thiophene-2-sulfonic acid tert-butylamide], for which the melting point was 209 °C (dec.).
Turning to `COc1cc(-c2cc(C)nc(-c3ccnc(-c4cccc(S(N)(=O)=O)c4)c3)c2)ccc1C(F)(F)F` [Example 340, 3-[4-(3-Methoxy-4-trifluoromethyl-phenyl)-6-methyl-[2,4′]bipyridinyl-2′-yl]-benzenesulfonamide], the melting point is 233 °C (dec.).
To `COc1cc(-c2cc(C)nc(-c3ccnc(-c4ccc(S(N)(=O)=O)s4)c3)c2)ccc1C(F)(F)F` [Example 341, 5-[4-(3-Methoxy-4-trifluoromethyl-phenyl)-6-methyl-[2,4′]bipyridinyl-2′-yl]-thiophene-2-sulfonic acid amide] belongs 261 °C (dec.); to `Cc1cc(-c2ccc(C(F)(F)F)cc2)cc(-c2cccc(-c3csc(N)n3)c2)n1` [Example 342, 4-{3-[6-Methyl-4-(4-trifluoromethyl-phenyl)-pyridin-2-yl]-phenyl}-thiazol-2-ylamine], more than 250 °C; to `Cc1cc(-c2ccc(C(F)(F)F)cc2)cc(-c2cccc(-c3csc(NS(=O)(=O)NC(=O)OC(C)(C)C)n3)c2)n1` [Example 344, N-(tert-Butoxycarbonyl)-N′-(4-{3-[6-methyl-4-(4-trifluoromethyl-phenyl)-pyridin-2-yl]-phenyl}-thiazol-2-yl)-sulfamide], 152 °C (dec.).
The value for `Cc1cc(-c2ccc(C(F)(F)F)cc2)cc(-c2ccnc(-c3cccc(S(=O)(=O)N4CCSCC4)c3)c2)n1` [Example 347, 6-Methyl-2′-[3-(thiomorpholine-4-sulfonyl)-phenyl]-4-(4-trifluoromethyl-phenyl)-[2,4′]bipyridinyl] was 156 °C (dec.); that for `Cc1cc(-c2ccc(C(F)(F)F)cc2)cc(-c2ccnc(-c3cccc(S(=O)(=O)NCCO)c3)c2)n1` [Example 348, N-(2-Hydroxy-ethyl)-3-[6-methyl-4-(4-trifluoromethyl-phenyl)-[2,4′]bipyridinyl-2′-yl]-benzenesulfonamide] was 103 °C (dec.).
